Publication PMC9134086, “Inhibition of Dipeptidyl Peptidase-4 by Flavonoids: Structure–Activity Relationship, Kinetics and Interaction Mechanism” (Frontiers in Nutrition, 2022)
Values joined by “and” are separate entries in the source; they are usually repeats but may differ in a detail not shown here. Identical values can stand only once.

Assays:
[1] = target: T1, DPP-4 (human recombinant) (Homo sapiens, UniProt P27487); experiment: In vitro assay for DPP-4 inhibitory activity (fluorescence, Gly-Pro-AMC); format: biochemical; conditions: for inhibition at 200 µM / % Inhibition at 200μM: flavonoid 200 μM, mean ± SD, three independent experiments; for inhibition at 200 µM: read-out: % Inhibition at 200μM; for IC50: DPP-4 inhibition, fluorescence method;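 as to all read-outs here: fluorescence of released AMC (excitation 360 nm, emission 460 nm) followed kinetically over 30 min at 37 °C in Tris-HCl pH 8.0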
T1 construct: purchased Sigma Aldrich D3446

DPP-4 [2] = tested on: DPP-4; set-up: method as in PMID 31441917; conditions: test concentration of 200 μM; cited from earlier work
[3] = target: T1, DPP-4 (human recombinant); experiment: Inhibition kinetic analysis (V vs [DPP-4], Lineweaver-Burk, Dixon and Cornish-Bowden plots); format: biochemical; conditions: for Kiu (uncompetitive inhibition constant): Cornish-Bowden equation; for Inhibition type: Lineweaver-Burk, Dixon and Cornish-Bowden plots, Gly-Pro-AMC 50–200 μM, DPP-4 0.42 mU/mL; for reversibility of the inhibition: plots of V vs [DPP-4] 0.21–0.84 mU/mL, 200 μM Gly-Pro-AMC; for Ki: Dixon equation, read-out: Kic (competitive inhibition constant); for 1/Kiu: reciprocal of uncompetitive inhibition constant
[4] = target: T1, DPP-4 (human recombinant); experiment: Fluorescence quenching experiments (Stern-Volmer, binding constant, thermodynamic parameters); conditions: for Kq (quenching rate constant): τ0 10^−8 s; for ΔH (enthalpy change) / ΔS (entropy change): from Kb at 298 and 310 K;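 as to all read-outs here: intrinsic DPP-4 fluorescence emission scanned 290–500 nm, corrected for flavonoid background and inner-filter absorbance, compared without versus with flavonoid quencher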
DPP-4 [5] = tested on: DPP-4; set-up: method as in PMID 33063510; conditions: different DPP-IV inhibitor screening assay kit; cited from earlier work

T1 sequence (P27487 whole entry): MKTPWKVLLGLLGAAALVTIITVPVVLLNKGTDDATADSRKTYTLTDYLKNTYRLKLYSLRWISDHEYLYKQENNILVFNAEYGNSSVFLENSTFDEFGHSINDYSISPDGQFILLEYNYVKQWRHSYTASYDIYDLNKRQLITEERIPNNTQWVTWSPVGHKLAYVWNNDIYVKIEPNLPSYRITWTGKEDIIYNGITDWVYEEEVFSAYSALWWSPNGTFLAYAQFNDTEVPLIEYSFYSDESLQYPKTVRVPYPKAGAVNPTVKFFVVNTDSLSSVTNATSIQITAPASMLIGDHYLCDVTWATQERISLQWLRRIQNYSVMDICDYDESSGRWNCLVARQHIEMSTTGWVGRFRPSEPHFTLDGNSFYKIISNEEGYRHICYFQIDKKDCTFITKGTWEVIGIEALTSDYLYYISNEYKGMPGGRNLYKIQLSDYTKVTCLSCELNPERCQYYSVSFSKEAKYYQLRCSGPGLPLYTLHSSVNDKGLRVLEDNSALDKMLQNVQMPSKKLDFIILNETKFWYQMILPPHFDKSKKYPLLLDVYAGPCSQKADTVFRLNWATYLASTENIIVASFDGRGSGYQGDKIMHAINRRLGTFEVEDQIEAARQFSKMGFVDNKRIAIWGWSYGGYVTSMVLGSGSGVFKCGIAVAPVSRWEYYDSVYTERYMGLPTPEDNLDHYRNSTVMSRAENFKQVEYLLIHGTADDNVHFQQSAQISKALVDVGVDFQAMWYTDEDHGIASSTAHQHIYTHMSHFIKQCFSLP

For `O=c1cc(-c2ccc(O)cc2)oc2cc(O)cc(O)c12` [A1, Apigenin], the inhibition at 200 µM [1] is listed as 46.4 ± 1.49% and the inhibitory percentage (DPP-4 [2]) is listed as 44 ± 2%.
In the case of `O=C1C[C@@H](c2ccc(O)cc2)Oc2cc(O)cc(O)c21` [C6, Naringenin], the inhibition at 200 µM [1] is given as under 10% and the inhibitory percentage (DPP-4 [2]) is given as “lower than 20%”.
In the case of `O=C1c2c(O)cc(O)cc2OC(c2ccc(O)c(O)c2)C1O` (stereo not shown) [C8, Taxifolin], the inhibition at 200 µM [1] is given as 19.9 ± 0.65% and the inhibitory percentage (DPP-4 [2]) is given as “lower than 20%”.
With `O=c1c(O[C@@H]2O[C@H](CO)[C@H](O)[C@H](O)[C@H]2O)c(-c2ccc(O)c(O)c2)oc2cc(O)cc(O)c12` [E4, Hyperoside] the “% Inhibition at 200μM” value [1] was 62.10 ±0.16%, the inhibition at 200 µM [1] was over 50% and the “Kiu (uncompetitive inhibition constant)” value [3] was 14.8 ± 0.22 10^−5 mol L^−1. The Inhibition type [3] was “Mixed”, the “reversibility of the inhibition” value [3] was “reversible” and the “KSV (Stern-Volmer quenching constant)” value ([4]; 298 K) was 4.83 ± 0.01 ×10^4 L mol^−1. The “n (number of binding sites)” value ([4]; 298 K) was 1.04 ± 0.02, the “ΔG (Gibbs free-energy change)” value ([4]; 298 K) was -6.6334 kcal/mol and the “Kq (quenching rate constant)” value ([4]; 298 K) was 4.83 ± 0.01 ×10^12 L mol^−1 s^−1. The “KSV (Stern-Volmer quenching constant)” value ([4]; 310 K) was 4.08 ± 0.01 ×10^4 L mol^−1, the “n (number of binding sites)” value ([4]; 310 K) was 1.03 ± 0.02 and the “ΔG (Gibbs free-energy change)” value ([4]; 310 K) was -6.7641 kcal/mol. For the same molecule, the “Kq (quenching rate constant)” value ([4]; 310 K) was 4.08 ± 0.01 ×10^12 L mol^−1 s^−1, the “ΔH (enthalpy change)” value [4] was -3.3815 kcal/mol and the “ΔS (entropy change)” value [4] was 45.66 J mol^−1K^−1.
With `COc1cc(-c2oc3cc(O)cc(O)c3c(=O)c2O[C@@H]2O[C@H](CO[C@@H]3O[C@@H](C)[C@H](O)[C@@H](O)[C@H]3O)[C@@H](O)[C@H](O)[C@H]2O)ccc1O` [E21, Narcissoside] the IC50 [1] was 167 µM and < 200 µM, the “% Inhibition at 200μM” value [1] was 57.50 ±1.28% and the inhibition at 200 µM [1] was over 50%. The “Kiu (uncompetitive inhibition constant)” value [3] was 22.3 ± 0.15 10^−5 mol L^−1, the Ki [3] was 116 ± 2.1 µM and the Inhibition type [3] was “Mixed”. For the same molecule, the “reversibility of the inhibition” value [3] was “reversible”, the 1/Kic ([3]; reciprocal of competitive inhibition constant) was 0.86 ± 0.02 10^4 L mol^−1 and the 1/Kiu [3] was 0.44 ± 0.03 10^4 L mol^−1. The “KSV (Stern-Volmer quenching constant)” value ([4]; 298 K) was 7.212 ± 0.01 ×10^4 L mol^−1, the “n (number of binding sites)” value ([4]; 298 K) was 1.22 ± 0.02 and the “ΔG (Gibbs free-energy change)” value ([4]; 298 K) was -8.059 kcal/mol. The “Kq (quenching rate constant)” value ([4]; 298 K) was 7.212 ± 0.01 ×10^12 L mol^−1 s^−1, the “KSV (Stern-Volmer quenching constant)” value ([4]; 310 K) was 6.389 ± 0.01 ×10^4 L mol^−1 and the “n (number of binding sites)” value ([4]; 310 K) was 1.21 ± 0.02. The “ΔG (Gibbs free-energy change)” value ([4]; 310 K) was -8.305 kcal/mol, the “Kq (quenching rate constant)” value ([4]; 310 K) was 6.389 ± 0.01 ×10^12 L mol^−1 s^−1 and the “ΔH (enthalpy change)” value [4] was -1.937 kcal/mol. For the same molecule, the “ΔS (entropy change)” value [4] was 85.93 J mol^−1K^−1.
In the case of `O=c1c(O)c(-c2ccc(O)c(O)c2)oc2cc(O)cc(O)c12` [E23, Quercetin], the inhibition at 200 µM [1] is given as 39.4 ± 0.58%, the “inhibitory percentage relative to rhamnetin (E27)” value ([1]; ratio of % inhibition at 200 μM, quercetin vs rhamnetin) is given as 1.77 times and the inhibitory percentage (DPP-4 [2]) is given as 46 ± 2%.
In the case of `OCC1OC(Oc2cc3c(O)cc(O)cc3[o+]c2-c2ccc(O)c(O)c2)C(O)C(O)C1O` (stereo not shown) [F2, Cyanidin 3-O-glucoside chloride], the IC50 [1] is reported as 81.1 ± 4.14 µM, the “% Inhibition at 200μM” value [1] is reported as 68.05 ±0.15% and the inhibition at 200 µM [1] is reported as over 50%. The “inhibitory percentage relative to cyanidin (F1)” value ([1]; ratio of % inhibition at 200 μM, cyanidin 3-O-glucoside vs cyanidin) was 3.62 times, the IC50 (DPP-4 [5]) was 8.26 µM and the “Kiu (uncompetitive inhibition constant)” value [3] was 18.37 ± 0.24 10^−5 mol L^−1. For the same molecule, the Ki [3] was 74.3 ± 1.2 µM, the Inhibition type [3] was “Mixed” and the “reversibility of the inhibition” value [3] was “reversible”. For the same molecule, the 1/Kiu [3] was 0.57 ± 0.03 10^4 L mol^−1, the “KSV (Stern-Volmer quenching constant)” value ([4]; 298 K) was 3.64 ± 0.04 ×10^4 L mol^−1 and the “n (number of binding sites)” value ([4]; 298 K) was 1.05 ± 0.01. The “ΔG (Gibbs free-energy change)” value ([4]; 298 K) was -6.577 kcal/mol, the “Kq (quenching rate constant)” value ([4]; 298 K) was 3.64 ± 0.04 ×10^12 L mol^−1 s^−1 and the “KSV (Stern-Volmer quenching constant)” value ([4]; 310 K) was 3.08 ± 0.06 ×10^4 L mol^−1. The “n (number of binding sites)” value ([4]; 310 K) was 1.04 ± 0.01, the “Kq (quenching rate constant)” value ([4]; 310 K) was 3.08 ± 0.06 ×10^12 L mol^−1 s^−1 and the “ΔH (enthalpy change)” value [4] was -1.971 kcal/mol. The “ΔS (entropy change)” value [4] was 64.68 J mol^−1K^−1.
For `O=C(/C=C/c1ccc(O)cc1)c1ccc(O)cc1O` [G1, Isoliquiritigenin], the IC50 [1] was 150 µM and < 200 µM, the inhibition at 200 µM [1] was over 50% and the “Kiu (uncompetitive inhibition constant)” value [3] was 26.7 ± 0.34 10^−5 mol L^−1. For the same molecule, the Ki [3] was 98.2 ± 3.4 µM and the “ΔH (enthalpy change)” value [4] was -1.901 kcal/mol.
